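Test compounds were applied to cells in 96-well plates for 48 hours at 5 doses. GI50 = concentration required for 50% inhibition of growth. Definition used: TGI = concentration required for complete inhibition of growth.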
Experiments:
Experiment in all cases: NCI tumour cell line growth inhibition, 48 h
MCF7 breast = tested on: MCF7 breast
IGROV1 ovarian = tested on: IGROV1 ovarian
SN12C renal = tested on: SN12C renal
UACC-257 melanoma = tested on: UACC-257 melanoma
OVCAR-4 ovarian = tested on: OVCAR-4 ovarian
OVCAR-5 ovarian = tested on: OVCAR-5 ovarian
CCRF-CEM leukemia = tested on: CCRF-CEM leukemia
KM12 colon = tested on: KM12 colon
A549 NSCLC = tested on: A549 NSCLC
NCI-H226 lung = tested on: NCI-H226 lung
UO-31 renal = tested on: UO-31 renal
BT-549 breast = tested on: BT-549 breast
SF-539 CNS = tested on: SF-539 CNS
SF-268 CNS = tested on: SF-268 CNS
TK-10 renal = tested on: TK-10 renal
MDA-MB-231 breast = tested on: MDA-MB-231 breast
HS 578T breast = tested on: HS 578T breast
MOLT-4 leukemia = tested on: MOLT-4 leukemia
RPMI-8226 leukemia = tested on: RPMI-8226 leukemia
OVCAR-8 ovarian = tested on: OVCAR-8 ovarian
NCI-H522 lung = tested on: NCI-H522 lung
SNB-19 CNS = tested on: SNB-19 CNS
SW-620 colon = tested on: SW-620 colon
PC-3 prostate = tested on: PC-3 prostate
EKVX NSCLC = tested on: EKVX NSCLC
786-0 renal = tested on: 786-0 renal
HCT-116 colon = tested on: HCT-116 colon
K-562 leukemia = tested on: K-562 leukemia
SF-295 CNS = tested on: SF-295 CNS
U251 CNS = tested on: U251 CNS
HT29 colon = tested on: HT29 colon
UACC-62 melanoma = tested on: UACC-62 melanoma
T-47D breast = tested on: T-47D breast
M14 melanoma = tested on: M14 melanoma
SK-MEL-2 melanoma = tested on: SK-MEL-2 melanoma
SK-OV-3 ovarian = tested on: SK-OV-3 ovarian
A498 renal = tested on: A498 renal
RXF 393 renal = tested on: RXF 393 renal
SK-MEL-5 melanoma = tested on: SK-MEL-5 melanoma
HOP-92 NSCLC = tested on: HOP-92 NSCLC
HCT-15 colon = tested on: HCT-15 colon
HCC-2998 colon = tested on: HCC-2998 colon
LOX IMVI melanoma = tested on: LOX IMVI melanoma
COLO 205 colon = tested on: COLO 205 colon
NCI/ADR-RES ovarian = tested on: NCI/ADR-RES ovarian
SNB-75 CNS = tested on: SNB-75 CNS
HL-60(TB) leukemia = tested on: HL-60(TB) leukemia
HOP-62 NSCLC = tested on: HOP-62 NSCLC
OVCAR-3 ovarian = tested on: OVCAR-3 ovarian
SK-MEL-28 melanoma = tested on: SK-MEL-28 melanoma
MDA-MB-435 = tested on: MDA-MB-435
SR leukemia = tested on: SR leukemia
DU-145 prostate = tested on: DU-145 prostate
ACHN renal = tested on: ACHN renal
CAKI-1 renal = tested on: CAKI-1 renal
NCI-H460 lung = tested on: NCI-H460 lung

With `COC(=O)c1ccc(C2SC(C)C(=O)N2NC(=O)C(O)c2ccccc2)cc1` (configuration not stated) the GI50 (MCF7 breast) was greater than 100 µM, the TGI (MCF7 breast) was greater than 100 µM and the GI50 (IGROV1 ovarian) was greater than 100 µM. It also gave a TGI (IGROV1 ovarian) greater than 100 µM, a GI50 (SN12C renal) greater than 100 µM and a TGI (SN12C renal) greater than 100 µM. For the same compound, the GI50 (UACC-257 melanoma) was greater than 100 µM, the TGI (UACC-257 melanoma) was greater than 100 µM and the GI50 (OVCAR-4 ovarian) was greater than 100 µM. The TGI (OVCAR-4 ovarian) was greater than 100 µM, the GI50 (OVCAR-5 ovarian) was greater than 100 µM and the TGI (OVCAR-5 ovarian) was greater than 100 µM. It also gave a GI50 (CCRF-CEM leukemia) greater than 100 µM, a TGI (CCRF-CEM leukemia) greater than 100 µM and a GI50 (KM12 colon) greater than 100 µM. For the same compound, the TGI (KM12 colon) was greater than 100 µM, the GI50 (A549 NSCLC) was greater than 100 µM and the TGI (A549 NSCLC) was greater than 100 µM. For the same compound, the GI50 (NCI-H226 lung) was greater than 100 µM, the TGI (NCI-H226 lung) was greater than 100 µM and the GI50 (UO-31 renal) was greater than 100 µM. For the same compound, the TGI (UO-31 renal) was greater than 100 µM, the GI50 (BT-549 breast) was greater than 100 µM and the TGI (BT-549 breast) was greater than 100 µM. It also gave a GI50 (SF-539 CNS) greater than 100 µM, a TGI (SF-539 CNS) greater than 100 µM and a GI50 (SF-268 CNS) greater than 100 µM. The TGI (SF-268 CNS) was greater than 100 µM, the GI50 (TK-10 renal) was greater than 100 µM and the TGI (TK-10 renal) was greater than 100 µM. The GI50 (MDA-MB-231 breast) was greater than 100 µM, the TGI (MDA-MB-231 breast) was greater than 100 µM and the GI50 (HS 578T breast) was greater than 100 µM. For the same compound, the TGI (HS 578T breast) was greater than 100 µM, the GI50 (MOLT-4 leukemia) was greater than 100 µM and the TGI (MOLT-4 leukemia) was greater than 100 µM. The GI50 (RPMI-8226 leukemia) was greater than 100 µM, the TGI (RPMI-8226 leukemia) was greater than 100 µM and the GI50 (OVCAR-8 ovarian) was greater than 100 µM. For the same compound, the TGI (OVCAR-8 ovarian) was greater than 100 µM, the GI50 (NCI-H522 lung) was greater than 100 µM and the TGI (NCI-H522 lung) was greater than 100 µM. For the same compound, the GI50 (SNB-19 CNS) was greater than 100 µM, the TGI (SNB-19 CNS) was greater than 100 µM and the GI50 (SW-620 colon) was greater than 100 µM. For the same compound, the TGI (SW-620 colon) was greater than 100 µM, the GI50 (PC-3 prostate) was greater than 100 µM and the TGI (PC-3 prostate) was greater than 100 µM. For the same compound, the GI50 (EKVX NSCLC) was greater than 100 µM, the TGI (EKVX NSCLC) was greater than 100 µM and the GI50 (786-0 renal) was greater than 100 µM. It also gave a TGI (786-0 renal) greater than 100 µM, a GI50 (HCT-116 colon) greater than 100 µM and a TGI (HCT-116 colon) greater than 100 µM. It also gave a GI50 (K-562 leukemia) greater than 100 µM, a TGI (K-562 leukemia) greater than 100 µM and a GI50 (SF-295 CNS) greater than 100 µM. For the same compound, the TGI (SF-295 CNS) was greater than 100 µM, the GI50 (U251 CNS) was greater than 100 µM and the TGI (U251 CNS) was greater than 100 µM. The GI50 (HT29 colon) was greater than 100 µM, the TGI (HT29 colon) was greater than 100 µM and the GI50 (UACC-62 melanoma) was greater than 100 µM. For the same compound, the TGI (UACC-62 melanoma) was greater than 100 µM, the GI50 (T-47D breast) was greater than 100 µM and the TGI (T-47D breast) was greater than 100 µM. It also gave a GI50 (M14 melanoma) greater than 100 µM, a TGI (M14 melanoma) greater than 100 µM and a GI50 (SK-MEL-2 melanoma) greater than 100 µM. For the same compound, the TGI (SK-MEL-2 melanoma) was greater than 100 µM, the GI50 (SK-OV-3 ovarian) was greater than 100 µM and the TGI (SK-OV-3 ovarian) was greater than 100 µM. It also gave a GI50 (A498 renal) greater than 100 µM, a TGI (A498 renal) greater than 100 µM and a GI50 (RXF 393 renal) greater than 100 µM. It also gave a TGI (RXF 393 renal) greater than 100 µM, a GI50 (SK-MEL-5 melanoma) greater than 100 µM and a TGI (SK-MEL-5 melanoma) greater than 100 µM. It also gave a GI50 (HOP-92 NSCLC) greater than 100 µM, a TGI (HOP-92 NSCLC) greater than 100 µM and a GI50 (HCT-15 colon) greater than 100 µM. For the same compound, the TGI (HCT-15 colon) was greater than 100 µM, the GI50 (HCC-2998 colon) was greater than 100 µM and the TGI (HCC-2998 colon) was greater than 100 µM. It also gave a GI50 (LOX IMVI melanoma) greater than 100 µM, a TGI (LOX IMVI melanoma) greater than 100 µM and a GI50 (COLO 205 colon) greater than 100 µM. For the same compound, the TGI (COLO 205 colon) was greater than 100 µM, the GI50 (NCI/ADR-RES ovarian) was greater than 100 µM and the TGI (NCI/ADR-RES ovarian) was greater than 100 µM. For the same compound, the GI50 (SNB-75 CNS) was greater than 100 µM, the TGI (SNB-75 CNS) was greater than 100 µM and the GI50 (HL-60(TB) leukemia) was greater than 100 µM. For the same compound, the TGI (HL-60(TB) leukemia) was greater than 100 µM, the GI50 (HOP-62 NSCLC) was greater than 100 µM and the TGI (HOP-62 NSCLC) was greater than 100 µM. The GI50 (OVCAR-3 ovarian) was greater than 100 µM, the TGI (OVCAR-3 ovarian) was greater than 100 µM and the GI50 (SK-MEL-28 melanoma) was greater than 100 µM. It also gave a TGI (SK-MEL-28 melanoma) greater than 100 µM, a GI50 (MDA-MB-435) greater than 100 µM and a TGI (MDA-MB-435) greater than 100 µM. The GI50 (SR leukemia) was greater than 100 µM, the TGI (SR leukemia) was greater than 100 µM and the GI50 (DU-145 prostate) was greater than 100 µM. For the same compound, the TGI (DU-145 prostate) was greater than 100 µM, the GI50 (ACHN renal) was greater than 100 µM and the TGI (ACHN renal) was greater than 100 µM. It also gave a GI50 (CAKI-1 renal) greater than 100 µM, a TGI (CAKI-1 renal) greater than 100 µM and a GI50 (NCI-H460 lung) greater than 100 µM. It also gave a TGI (NCI-H460 lung) greater than 100 µM.

— PubChem BioAssay (NCI)
